Reference: patent publication US20240199677A1, “GLYCOSYLTRANSFERASE INHIBITORS” (CALIFORNIA INSTITUTE OF TECHNOLOGY, priority 2018, published 2024)
Values after ≈ are worked out from the molar mass of the structure shown.

Tests used:
HCT 116 = test: Cytotoxicity MTT assay, HCT 116; type: cell-based; conditions: Homo sapiens, HCT-116, read-out: Cytotoxicity IC50 HCT 116
Method: (§1) Selected molecules were tested for cytotoxicity (IC50) in cancer and healthy cells via a MTT colorimetric assay.
(§2) Each cell was cultured in recommended medium by ATCC, and the IC50 data were obtained with each cell line.

C. difficile spores = test: Spore viability testing; type: cell-based; conditions: x2 MIC, 24 hours
AsPc-1 cells [1] = test: Cell viability assay (FIG. 5), AsPc-1; type: cell-based; conditions: after 4 days; 1.77 μM, 3.54 μM, and 14.17 μM
Method: (§3) The cytotoxic activity of 11 against AsPc-1 and Panc-1 cells was also measured through cell viability assays (FIG. 5). […] Similarly, the percentage of viable Panc-1 cells was near-zero after about 3 days in the presence of 11 (0.44 μM, 1.77 μM, and 7.08 μM).

Panc-1 cells [2] = test: Cell viability assay (FIG. 5), Panc-1; type: cell-based; conditions: after about 3 days; 0.44 μM, 1.77 μM, and 7.08 μM
Method: as §3

DPAGT1 = DPAGT1 (Homo sapiens (Human), UniProt Q9H3H5); test: DPAGT1 inhibition (FIG. 6); type: biochemical
DPAGT1, sequence (Q9H3H5 whole entry, looked up): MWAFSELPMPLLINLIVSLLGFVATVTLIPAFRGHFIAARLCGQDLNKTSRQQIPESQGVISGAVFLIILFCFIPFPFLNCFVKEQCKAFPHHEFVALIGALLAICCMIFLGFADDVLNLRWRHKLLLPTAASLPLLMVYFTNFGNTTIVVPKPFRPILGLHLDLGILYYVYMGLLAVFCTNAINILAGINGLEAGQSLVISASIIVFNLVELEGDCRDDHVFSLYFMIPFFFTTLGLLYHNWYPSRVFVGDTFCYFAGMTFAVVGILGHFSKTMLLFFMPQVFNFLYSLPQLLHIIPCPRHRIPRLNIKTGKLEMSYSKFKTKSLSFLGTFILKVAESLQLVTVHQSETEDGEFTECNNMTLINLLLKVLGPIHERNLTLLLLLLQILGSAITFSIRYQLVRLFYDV

KB = test: Cytotoxicity MTT assay, KB; type: cell-based; conditions: Homo sapiens, KB; read-out: Cytotoxicity IC50 KB
Method: as §1, §2

Panc-1 cells [3] = test: Boyden Chamber migration assay, Panc-1; type: cell-based; conditions: FIG. 7, versus Gemcitabine, Taxol, Tunicamycin
Vero cells = test: Cytotoxicity MTT assay, Vero cells; type: cell-based, monkey; conditions: Primates, Vero; Table 2; read-out: Vero cells IC50
Method: (§4) Cytotoxicity Assays. Cytotoxicity assays were performed using Vero monkey kidney (ATCC CCL-81) and HepG2 human hepatoblastoma cell (ATCC HB-8065) lines. Vero or HepG2 cells were cultured in 75 cm^2 flasks and transferred to 96-well cell culture plates using ATCC-formulated Eagle's minimum essential medium containing 10% FBS, penicillin, and streptomycin. Serially diluted aliquots of each test compound at concentrations ranging from 0.78-200 μg/mL were added to the cells. […] The plates were incubated and cytotoxic effects were determined via the MTT assay.
as §1
(§5) Cytotoxicity Assays. For Vero cells: Vero cell was cultured in Complete eagle's minimum essential growth medium (EMEM) containing L-glutamine, sodium pyruvate, minimum essential amino acids, penicillin-streptomycin and 10% fetal bovine serum. Inoculating number of cells were 400,000 cells/mL and a final 40,000 cells/well. After 72 h of exposure of molecules to this cell line at concentrations ranging from 0.78 to 200 μg/mL, the culture medium was changed to complete EMEM without phenol red before addition of yellow tetrazolium dye; MTT. Viability was assessed on the basis of cellular conversion of MTT into a purple formazan product. The absorbance of the colored formazan product was measured at 570 nm by BioTek Synergy HT Spectrophotometer. Linearity of the MTT response to the cell number was determined.

[4] = Cytotoxicity MTT assay, Vero cells; type: cell-based, monkey; conditions: monkey
Method: as §4, §1, §5

AsPc-1 cells [5] = test: Scratch (wound healing) assay, AsPc-1; type: cell-based; conditions: FIG. 9, versus Gemcitabine
[6] = Cytotoxicity MTT assay, HepG2; type: cell-based; conditions: human
HPAF-II = test: Cytotoxicity MTT assay, HPAF-II; type: cell-based; conditions: Homo sapiens, HPAF-II; read-out: Cytotoxicity IC50 HPAF-II
Method: as §1, §2

Water solubility = type: physicochemical
C. perfringens = type: cell-based; conditions: FIG. 4
AsPc-1 = test: Cytotoxicity MTT assay, AsPc-1; type: cell-based; conditions: Homo sapiens, ASPC1; read-out: Cytotoxicity IC50 AsPc-1
Method: as §1, §2

B. subtilis = test: Antibacterial activity (FIG. 4), B. subtilis; type: cell-based
MDA-MB-435S = test: Cytotoxicity MTT assay, MDA-MB-435S; type: cell-based; conditions: Homo sapiens, MDA-MB-435S; read-out: Cytotoxicity IC50 MDA-MB-435S
Method: as §1, §2

L12210 = test: Cytotoxicity MTT assay, L12210; type: cell-based; conditions: read-out: Cytotoxicity IC50 L12210
Method: as §1, §2

Caco-2 = test: Cytotoxicity MTT assay, Caco-2; type: cell-based; conditions: Homo sapiens, Caco-2; read-out: Cytotoxicity IC50 Caco-2
Method: as §1, §2

sheep blood = test: Hemolysis, sheep blood; type: cell-based
Hemolysis, sheep blood = type: cell-based; conditions: sheep, sheep blood
Panc-1 = test: Cytotoxicity MTT assay, Panc-1; type: cell-based; conditions: Homo sapiens, PANC-1; read-out: Cytotoxicity IC50 Panc-1
Method: as §1, §2

AsPc-1 cells [7] = test: Synergistic assay (checkerboard), 11 and Gemcitabine; type: cell-based
Method: The FIC index was calculated according to the following equation. ΣFIC=FICA+FICB=CA/MICA+CB/MICB where MICA and MICB are MIC of drugs A and B, CA and CB are the concentrations of drugs A and B used in combination. In these interaction studies, ΣFIC of less than 0.5 represents synergistic activity.
These experiments were performed in the same manner as those of Example 7.

In the case of `NC[C@H]1O[C@@H](O[C@H]([C@H]2O[C@@H](n3ccc(=O)[nH]c3=O)[C@H](O)[C@@H]2O)[C@H](NCCCC(=O)NCc2ccc(N3CCC(Oc4ccc(C(F)(F)F)cc4)CC3)cc2)C(N)=O)[C@H](O)[C@@H]1O` [Compound 11], the IC50 (HCT 116) is reported as 3.54 µM, the “Effect on viability of C. difficile spores (CFU)” value (C. difficile spores) is reported as “caused loss of viability of C. difficile spores” and the AsPc-1 cell viability (AsPc-1 cells [1]) is reported as “Nearly all AsPc-1 cells were killed”. The “Percentage of viable Panc-1 cells” value (Panc-1 cells [2]) was “near-zero”, the IC50 (DPAGT1) was 0.26 µM and the IC50 (KB) was 7.09 µM. The Panc-1 migratory cells (Panc-1 cells [3]) was “fewer Panc-1 migratory cells than Gemcitabine, Taxol, and Tunicamycin”, the IC50 (Vero cells) was 56.8 µM and the IC50 at 72 h [4] was greater than 65 µM. For the same compound, the “AsPc-1 cell migration, scratch assay” value (AsPc-1 cells [5]) was “less AsPc-1 cell migration than Gemcitabine”, the IC50 [6] was greater than 60 µM and the IC50 (HPAF-II) was less than 0.098 µM. For the same compound, the “Water solubility, times greater than 10” value (Water solubility; relative to 10) was 200 times, the solubility (Water solubility; water) was 22 mg/mL (≈ 25.4 mM) and the “Antibacterial activity against C. perfringens” value (C. perfringens) was “displayed antibacterial activity”. The IC50 (AsPc-1) was 0.95 µM, the “Antibacterial activity against B. subtilis” value (B. subtilis) was “displayed antibacterial activity” and the IC50 (MDA-MB-435S) was 7.09 µM. The IC50 (L12210) was greater than 100 µM, the IC50 (Caco-2) was greater than 60 µM and the IC50 (sheep blood) was 206 µM. The IC50 (Hemolysis, sheep blood) was 206 µM, the IC50 (Panc-1) was less than 0.098 µM and the AsPc-1 cells dead/alive (AsPc-1 cells [7]; Compound 11 0.0488281 μM + Gemcitabine 0.024414 μM) was “alive”. The AsPc-1 cells dead/alive (AsPc-1 cells [7]; Compound 11 0.0488281 μM + Gemcitabine 0.048828 μM) was “alive”, the AsPc-1 cells dead/alive (AsPc-1 cells [7]; Compound 11 0.0488281 μM + Gemcitabine 0.097656 μM) was “dead” and the AsPc-1 cells dead/alive (AsPc-1 cells [7]; Compound 11 0.0488281 μM + Gemcitabine 0.195313 μM) was “dead”. The AsPc-1 cells dead/alive (AsPc-1 cells [7]; Compound 11 0.0488281 μM + Gemcitabine 0.390625 μM) was “dead”, the AsPc-1 cells dead/alive (AsPc-1 cells [7]; Compound 11 0.0976563 μM + Gemcitabine 0.024414 μM) was “alive” and the AsPc-1 cells dead/alive (AsPc-1 cells [7]; Compound 11 0.0976563 μM + Gemcitabine 0.048828 μM) was “alive”. For the same compound, the AsPc-1 cells dead/alive (AsPc-1 cells [7]; Compound 11 0.0976563 μM + Gemcitabine 0.097656 μM) was “dead”, the AsPc-1 cells dead/alive (AsPc-1 cells [7]; Compound 11 0.0976563 μM + Gemcitabine 0.195313 μM) was “dead” and the AsPc-1 cells dead/alive (AsPc-1 cells [7]; Compound 11 0.0976563 μM + Gemcitabine 0.390625 μM) was “dead”. For the same compound, the AsPc-1 cells dead/alive (AsPc-1 cells [7]; Compound 11 0.1953125 μM + Gemcitabine 0.024414 μM) was “alive”, the AsPc-1 cells dead/alive (AsPc-1 cells [7]; Compound 11 0.1953125 μM + Gemcitabine 0.048828 μM) was “alive” and the AsPc-1 cells dead/alive (AsPc-1 cells [7]; Compound 11 0.1953125 μM + Gemcitabine 0.097656 μM) was “dead”. For the same compound, the AsPc-1 cells dead/alive (AsPc-1 cells [7]; Compound 11 0.1953125 μM + Gemcitabine 0.195313 μM) was “dead”, the AsPc-1 cells dead/alive (AsPc-1 cells [7]; Compound 11 0.1953125 μM + Gemcitabine 0.390625 μM) was “dead” and the AsPc-1 cells dead/alive (AsPc-1 cells [7]; Compound 11 0.390625 μM + Gemcitabine 0.024414 μM) was “alive”. The AsPc-1 cells dead/alive (AsPc-1 cells [7]; Compound 11 0.390625 μM + Gemcitabine 0.048828 μM) was “alive”, the AsPc-1 cells dead/alive (AsPc-1 cells [7]; Compound 11 0.390625 μM + Gemcitabine 0.097656 μM) was “dead” and the AsPc-1 cells dead/alive (AsPc-1 cells [7]; Compound 11 0.390625 μM + Gemcitabine 0.195313 μM) was “dead”. The AsPc-1 cells dead/alive (AsPc-1 cells [7]; Compound 11 0.390625 μM + Gemcitabine 0.390625 μM) was “dead”, the AsPc-1 cells dead/alive (AsPc-1 cells [7]; Compound 11 0.78125 μM + Gemcitabine 0.024414 μM) was “alive” and the AsPc-1 cells dead/alive (AsPc-1 cells [7]; Compound 11 0.78125 μM + Gemcitabine 0.048828 μM) was “alive”. The AsPc-1 cells dead/alive (AsPc-1 cells [7]; Compound 11 0.78125 μM + Gemcitabine 0.097656 μM) was “dead”, the AsPc-1 cells dead/alive (AsPc-1 cells [7]; Compound 11 0.78125 μM + Gemcitabine 0.195313 μM) was “dead” and the AsPc-1 cells dead/alive (AsPc-1 cells [7]; Compound 11 0.78125 μM + Gemcitabine 0.390625 μM) was “dead”. The “Σ FIC” value (AsPc-1 cells [7]; Entry 1: A 11 CA […] + B Gemcitabine CB 0.37 μM) was 0.3, the “Σ FIC” value (AsPc-1 cells [7]; Entry 2: A 11 CA 0.22 μM + B Gemcitabine CB 0.37 μM) was 0.47 and the IC50 (AsPc-1 cells [7]; Homo sapiens, ASPC1, 11 alone, AsPc-1 cells, read-out: IC50 A) was 0.98 µM. For the same compound, the “Concentration in combination resulting in AsPc-1 cell death” value (AsPc-1 cells [7]; as low as, 11 together with Gemcitabine) was 0.0488 µM and the “Effect of combination of 11 and Gemcitabine” value (AsPc-1 cells [7]; both combinations tested) was “synergistic effect”.
